According to US20240175881A1, “SIMPLIFIED METHODS FOR MEASURING LIVER FUNCTION” (HepQuant, LLC, priority 2022, published 2024):

Assays:
[1] = tested on: subjects with Child-Pugh A cirrhosis and a liver stiffness measurement of >15 kPa; conditions: HepQuant SHUNT test; cited from earlier work
[2] = tested on: patients with well-compensated (Child-Pugh A) NASH cirrhosis; experiment: Risk ACE from simplified cholate tests (SHUNT V2.0, DuO) in open-label resmetirom arm of MAESTRO-NAFLD-1; type: in vivo, human
Excerpt: MAESTRO-NAFLD-1 (NCT04197479) was a 52-week Phase 3 trial to evaluate the safety and tolerability of resmetirom, a thyroid hormone receptor-β agonist being studied for the treatment of NASH. (Harrison et al., Lancet 2019, 394:2012-24). MAESTRO-NAFLD-1 included an open-label active resmetirom treatment arm in patients with well-compensated (Child-Pugh A [CP-A]) NASH cirrhosis (FIG. 23).
Methods: Subjects (n=34) with compensated NASH cirrhosis underwent baseline testing and subsequent retesting at 28 and 48 weeks. Eligibility included at least 3 metabolic risk factors and NASH cirrhosis diagnosed by liver biopsy or accepted criteria
AUCs were calculated by a compartmental model (McRae et al., 2023 Translational Res. 252:53-63). For SHUNT V2.0: IV and oral data at 20 and 60 minutes were employed. For DuO: only oral data at 20 and 60 minutes were employed.
Risk ACE was calculated for each subject from the baseline and weeks 28 and 48 disease severity index (DSI). A Poisson model (Risk ACE) estimated the annual clinical event rate based on 220 subjects with 52 clinical events from the HALT-C Trial. The result is an event rate (clinical events per person-year). • Model A: Relationship with baseline DSI (denoted by dsi0):
Y=β0+β1dsi0 • Model D: Relationship with baseline DSI and change in DSI (denoted dsiΔ)
Difference from baseline is represented by the difference of Risk ACE Model A and Model D (Table 26).

SMILES | hepatic function [1] | subjects in whom Risk ACE decreased ([2]; DuO test, 28 weeks vs baseline) | subjects in whom Risk ACE decreased ([2]; DuO test, 48 weeks vs baseline) | Δ Risk ACE ([2]; DuO test, Baseline - Week 28 of resmetirom) | Δ Risk ACE ([2]; DuO test, Baseline - Week 28 of resmetirom, listed as resmetirom) | Δ Risk ACE ([2]; DuO test, Baseline - Week 48 of resmetirom) | Δ Risk ACE ([2]; DuO test, Baseline - Week 48 of resmetirom, listed as resmetirom) | subjects in whom Risk ACE decreased ([2]; SHUNT V2.0 test, 28 weeks vs baseline) | subjects in whom Risk ACE decreased ([2]; SHUNT V2.0 test, 48 weeks vs baseline) | Δ Risk ACE ([2]; SHUNT V2.0 test, Baseline - Week 28 of resmetirom) | Δ Risk ACE ([2]; SHUNT V2.0 test, Baseline - Week 28 of resmetirom, listed as resmetirom) | Δ Risk ACE ([2]; SHUNT V2.0 test, Baseline - Week 48 of resmetirom) | Δ Risk ACE ([2]; SHUNT V2.0 test, Baseline - Week 48 of resmetirom, listed as resmetirom) | estimated clinical event rate ([2]; simplified cholate tests, after 28 weeks of resmetirom)
CCOc1c(C(=O)O)cnn1-c1cccc(-c2cccc(C)c2OCc2ccc3c(c2C)CCN(C2CCOCC2)C3)n1 [BI 685509] | improves hepatic function |  |  |  |  |  |  |  |  |  |  |  |  | 
CC(C)c1cc(Oc2c(Cl)cc(-n3nc(C#N)c(=O)[nH]c3=O)cc2Cl)n[nH]c1=O [Resmetirom] |  | 21 of 23 | 19 of 23 | −0.0182 clinical events per person-year | significant decrease | −0.0355 clinical events per person-year | −0.0355 clinical events per person-yea | 20 of 23 | 19 of 23 | −0.0174 clinical events per person-year | −0.0170 clinical events per person-yea | −0.0325 clinical events per person-year | −0.0325 clinical events per person-yea | reduction in estimated clinical event rate
